A short description of the data set: Human HepG2 cell viability assay in 384 well format. Conditions: HepG2 cells, read-out: Inhibition. The data set is classed as toxicity, cell-based. Further details: dose 125 nL, time 70.5 hour; cytotoxicity at 70.5 h: concentration not given beside the values.
For the compound `CCNC(=O)N1CCN(C(=O)c2cc(Cl)cc3cccnc23)CC1`, the cytotoxicity at 70.5 h is -9.51%.

Consider `Cn1cnnc1CC1CCN(Cc2c(Cl)cncc2Cl)CC1`, for which the cytotoxicity at 70.5 h was 16.9%.

Turning to `Cc1nc(CO[C@H]2CN(Cc3cccs3)[C@@H]3COC[C@H]23)cs1`, the cytotoxicity at 70.5 h was -3.05%.

Consider `Cc1c(CCC(=O)Nc2ccc(Cl)cn2)cnn1C`, for which the cytotoxicity at 70.5 h was -1.57%.

On to `O=C(c1cccnc1O)N1CCCN(c2cccnn2)CC1`, for which the cytotoxicity at 70.5 h was -9.98%.

Turning to `Cn1nc(C#N)c2c1CN(C(=O)c1cccnc1)CCC2`, the cytotoxicity at 70.5 h is 29.4%.

With `CN(C)c1ccc(C(=O)Nc2ccn(Cc3ccccn3)n2)cn1`, the cytotoxicity at 70.5 h stood at 14.6%.

For `Cc1cnn(Cc2ccc(NC(=O)N3CCCC3)cc2)c1`, the cytotoxicity at 70.5 h was -3.9%.

As to `Cc1noc(C)c1CCN1CCCC1c1nc2cc(F)ccc2[nH]1` (centres undefined), the cytotoxicity at 70.5 h is -5.52%.

Turning to `CN(C)C[C@@H]1CN(C(=O)Cc2ccccc2)C[C@@H]1CO`, the cytotoxicity at 70.5 h is -3.7%.

As for `c1cc(CCn2ccc(NC3CCSCC3)n2)ccn1`, the cytotoxicity at 70.5 h is -3.19%.

`c1ccc(Cc2noc(CN3CCCCC3Cn3cncn3)n2)cc1` (centres undefined): the cytotoxicity at 70.5 h is 11.2%.

As for `CN(C)C(=O)c1ccccc1NC(=O)N[C@@H]1c2ccccc2C[C@@H]1O`, the cytotoxicity at 70.5 h stood at 0.722%.

In the case of `Cc1n[nH]c(C2CN(CC(=O)NCCc3ccc(F)cc3)CCO2)n1` (centres undefined), the cytotoxicity at 70.5 h is -114%.

Turning to `Cc1c(CN2CC[C@@H](N3CCC(O)CC3)[C@H](O)C2)[nH]c2ccc(F)cc12`, the cytotoxicity at 70.5 h was -2.56%.

In the case of `CCc1ccc(NC(=O)C(C)Nc2cccc3c2OCCO3)cc1` (centres undefined), the cytotoxicity at 70.5 h amounted to 2%.

On to `CC(C)c1cc(C(=O)O)nc2[nH]c(=O)[nH]c(=O)c12`, for which the cytotoxicity at 70.5 h is -15.1%.

For `C[S+]([O-])CCNCc1ccc(OCc2cscn2)cc1` (centres undefined), the cytotoxicity at 70.5 h came to 1.77%.

On to `C=C(C)CN(CC)S(=O)(=O)c1cccc(F)c1C#N`, for which the cytotoxicity at 70.5 h was -9.8%.

Regarding `Cc1cnccc1N1CCCN(C(=O)CCn2ccnc2C)CC1`, the cytotoxicity at 70.5 h is -3.98%.

Consider `CN(CCc1ccccc1)Cc1cnc(C2(C)CCCCO2)nc1` (centres undefined), for which the cytotoxicity at 70.5 h came to 1.38%.

For `c1cc(CNCC2CNc3ccnn3C2)cc(Cn2cccn2)c1` (centres undefined), the cytotoxicity at 70.5 h amounted to 4.46%.

Turning to `O=C(c1cccc2c1OCCO2)N1CCCC(n2ccnc2)C1` (centres undefined), the cytotoxicity at 70.5 h was -5.73%.

For `Cc1ccc2c(c1)CCC21CCN(C(=O)CO)CC1`, the cytotoxicity at 70.5 h is -8.48%.

Regarding `COCCO[C@H]1COCCN(C2CCN(C)CC2)C1`, the cytotoxicity at 70.5 h was 12.5%.

As to `CCOC(=O)[C@]12CCCN(Cc3nccs3)C[C@H]1CN(C(C)=O)C2`, the cytotoxicity at 70.5 h is -13.3%.

Turning to `CC(C)c1nn2c(-c3cnn(C)c3)nnc2s1`, the cytotoxicity at 70.5 h was -9.47%.

As for `CCc1nccn1C1CCCN(C(=O)COCC(F)(F)F)C1` (centres undefined), the cytotoxicity at 70.5 h was -1.33%.

For `CN(c1ccc(F)cc1)S(=O)(=O)c1cc2c(c(C(=O)O)c1)OCCO2`, the cytotoxicity at 70.5 h was -10.5%.

For `Nc1ncnc2nc(C3CCCCN3)ccc12` (centres undefined), the cytotoxicity at 70.5 h is -6.59%.

Take `CNC(=O)COC1COC2(CCN(Cc3ccncc3F)CC2)C1` (centres undefined): the cytotoxicity at 70.5 h is -18%.

Take `COc1ccc(CNC(=O)CCc2nnc3ccccn3c2=O)cc1`: the cytotoxicity at 70.5 h is 20.7%.

For the compound `Cn1cccc1C(=O)NCc1cnc2n1CCN(CC1CC1)C2`, the cytotoxicity at 70.5 h was determined as 3.59%.

For the compound `O=C(CO)N1CCCC(c2cc(C(F)(F)F)[nH]n2)C1` (centres undefined), the cytotoxicity at 70.5 h was -2.3%.

For `Cc1nc(CN2CCCCC2CCc2ccc(O)cc2)co1` (centres undefined), the cytotoxicity at 70.5 h is -6.18%.

Turning to `COCc1cnc2n1CCN(C1CCC1)C2C` (centres undefined), the cytotoxicity at 70.5 h was -2.01%.

With `O=C1C[C@H]2[C@@H](CCN2C(=O)Cc2cccs2)N1Cc1cccnc1`, the cytotoxicity at 70.5 h was -17%.

Regarding `COCCC(=O)NCC1Cn2nnc(-c3cccc(F)c3)c2CO1` (centres undefined), the cytotoxicity at 70.5 h is -0.67%.

For `O=C(N1CCOCC1)[C@@]12CCO[C@@H]1CCN(C1CCOCC1)C2`, the cytotoxicity at 70.5 h is -4.69%.

With `Cc1nc(CN2CCN(C(=O)NC(C)c3cccnc3)CC2)cs1` (centres undefined), the cytotoxicity at 70.5 h stood at 30.6%.

On to `CCc1c(C)n(CCOC)c2nc3ccccc3n2c1=O`, for which the cytotoxicity at 70.5 h came out at 19.8%.

Consider `CCO[C@H]1CC[C@H]2[C@H]1OCCN2C(=O)COc1ccccc1`, for which the cytotoxicity at 70.5 h is -4.98%.

With `C1CC(CN2C[C@@H]3C[C@@H](c4nnc(C5CC5)o4)O[C@@H]3C2)CCO1`, the cytotoxicity at 70.5 h was -7.69%.

Consider `O=C(CCOc1ccc(Br)cc1)N1CCN(c2cnccn2)CC1`, for which the cytotoxicity at 70.5 h amounted to 24.8%.

Consider `Cc1cc(-c2cc(S(=O)(=O)N3C[C@H](C4CC4)[C@@H](N)C3)c(C)s2)on1`, for which the cytotoxicity at 70.5 h turned out to be 19.4%.

Turning to `O=C(CCc1ccc(Cl)s1)NCc1nnc2n1CCCCC2`, the cytotoxicity at 70.5 h was -15.9%.

On to `CCc1ncncc1C(=O)NCCNc1ncnc2sccc12`, for which the cytotoxicity at 70.5 h was -21.7%.

On to `Cc1cc(C)n(CCCN(C)c2cc(N(C)C)ncn2)n1`, for which the cytotoxicity at 70.5 h was -7.08%.

As for `Cc1noc(C2CCCN(C(=O)c3cc(-c4ccccc4)on3)C2)n1` (centres undefined), the cytotoxicity at 70.5 h was -20.7%.

In the case of `CC(C1CCN(Cc2ccc(OC(F)F)cc2)CC1)N1CCOCC1` (centres undefined), the cytotoxicity at 70.5 h is -17.4%.

In the case of `OCCn1nccc1C1CCN(CCOc2ccccc2F)CC1`, the cytotoxicity at 70.5 h is -2.7%.

Turning to `O=C(NCC(O)COc1cccc(F)c1)C1(c2ccc(F)cc2)CC1` (centres undefined), the cytotoxicity at 70.5 h is -12%.

`Cc1ccc(CN(CCCN2CCOCC2)Cc2[nH]cnc2C)o1`: the cytotoxicity at 70.5 h is -2.33%.

As for `CNS(=O)(=O)CC(=O)N(Cc1ccsc1)c1ccccc1`, the cytotoxicity at 70.5 h is -8.25%.

With `CC(C)CN1CCc2[nH]cnc2C12CCN(C(=O)c1ccc[nH]1)CC2`, the cytotoxicity at 70.5 h was -3.93%.

For the compound `CCS(=O)(=O)N1Cc2ccccc2CC1C(=O)OCc1c(C)noc1C` (centres undefined), the cytotoxicity at 70.5 h is -7.84%.

Consider `Cc1ccccc1C(=O)N1CCC2(CC1)CC(c1cnn(C)c1)CO2` (centres undefined), for which the cytotoxicity at 70.5 h was -11.9%.

For the compound `O=C(O)CC1CN(Cc2ccccc2)CCO1` (centres undefined), the cytotoxicity at 70.5 h is -0.381%.

For `CCS(=O)(=O)c1ccc2c(c1)OCCO2`, the cytotoxicity at 70.5 h was -0.357%.

For the compound `O[C@H]1CCN(CC2CCOC2)[C@H]1Cc1ccncc1` (some centres undefined), the cytotoxicity at 70.5 h was -11.6%.

Consider `Cc1cc(N2CCCC2)nc(CNS(=O)(=O)Cc2ccccc2)n1`, for which the cytotoxicity at 70.5 h was -7.92%.

As for `CC(C)OCCNC1(c2ccc(F)cc2)CCOCC1`, the cytotoxicity at 70.5 h was -3.2%.

As for `O=C(c1ncoc1C1CC1)N1CCCN(CCCc2ccccc2)CC1`, the cytotoxicity at 70.5 h is -10.2%.

Take `CC(C)OCCCNC(=O)CN1CCC(N2CCN(C)C2=O)CC1`: the cytotoxicity at 70.5 h is -18.5%.

On to `COC(=O)CN(C(=O)c1cc(C(C)C)no1)c1cccc(F)c1`, for which the cytotoxicity at 70.5 h was -8.3%.

`Fc1ccccc1OC1CCN(CCn2cc3ccccc3n2)CC1`: the cytotoxicity at 70.5 h was -22%.

Turning to `O=C(c1ccc(COc2ccccc2Cl)o1)N1N=CCC1(O)C(F)(F)F` (centres undefined), the cytotoxicity at 70.5 h is -4.75%.

Take `Cc1nnc(CN(C)CCCOc2cccc(Cl)c2)o1`: the cytotoxicity at 70.5 h is 0.527%.

Take `Cc1cccc(OCCN2CCN(Cc3noc(C)n3)CC2)c1`: the cytotoxicity at 70.5 h is -2.75%.

Take `O=C(NCCc1c[nH]cn1)c1ccccc1C1CCNC1` (centres undefined): the cytotoxicity at 70.5 h was 18%.

`Cc1nn(C)c2c(NCCCn3cccn3)ncnc12`: the cytotoxicity at 70.5 h is -6.36%.

`COc1ccccc1S(=O)(=O)Nc1ccc2c(C(=O)O)c[nH]c2c1`: the cytotoxicity at 70.5 h is -6.86%.

For `Nc1nccc(N2C[C@@H](CN3CCCCC3)[C@@H](CO)C2)n1`, the cytotoxicity at 70.5 h was -6.83%.

As to `Cc1cnn(CCNCc2nnc(-c3ccccc3)o2)c1`, the cytotoxicity at 70.5 h was -1.2%.

Turning to `CCC(C)(C)n1nnnc1C(c1cccs1)N1CCCCC1` (centres undefined), the cytotoxicity at 70.5 h is -3.15%.

With `CCCN1CC(NC(=O)Nc2nc(C)n(C(C)C)n2)CC1=O` (centres undefined), the cytotoxicity at 70.5 h is -3.82%.

As to `COc1ccc(OC)c(C(=O)N2C[C@H]3CC[C@@H]2CN(C)C3)c1`, the cytotoxicity at 70.5 h is 20.2%.

For `CC(C)OCCOCc1cccc(NC(=O)NCc2cnn(C)c2)c1`, the cytotoxicity at 70.5 h is -0.106%.

As to `c1cn2c(n1)CNCC(COCC1CC1)C2` (centres undefined), the cytotoxicity at 70.5 h is -9.26%.

`CCC(C)NC(=O)c1ccc(CNC(=O)CCC(C)C)cc1` (centres undefined): the cytotoxicity at 70.5 h was 15.4%.

For the compound `O=S1(=O)NCC2(CCN(Cc3ccncc3)CC2)Oc2ncccc21`, the cytotoxicity at 70.5 h turned out to be 23.1%.

Turning to `CN(C)c1ncc(C(=O)N2C[C@H]3C[C@H](Oc4ccccc4)C[C@H]3C2)cn1`, the cytotoxicity at 70.5 h was -0.787%.

On to `O=C(CCc1cccs1)N1CCC(Nc2cccnn2)CC1`, for which the cytotoxicity at 70.5 h turned out to be 42.7%.

Regarding `COCCNC(=O)[C@H]1C[C@@H]2CCN(c3nncs3)C[C@H]2O1`, the cytotoxicity at 70.5 h is -4.17%.

Turning to `O=C(NC1CC1)c1cc(NC(=O)N2CCCC2)ccc1Cl`, the cytotoxicity at 70.5 h was -13.8%.

With `CS(=O)(=O)NC(=O)c1ccn(-c2ccc(Cl)c(Cl)c2)n1`, the cytotoxicity at 70.5 h was -3.09%.

As to `CCc1cccc(N2CCC(NC(=O)c3ccoc3C)CC2)c1`, the cytotoxicity at 70.5 h was determined as 19.4%.

As for `CCn1nc(C)c2ncnc(NCCCn3ccnc3)c21`, the cytotoxicity at 70.5 h was -9.37%.

Take `CC(C)N1CCO[C@H]2CN(C(=O)Cc3ccsc3)C[C@H]21`: the cytotoxicity at 70.5 h was -2.31%.

As to `O=C(O)C[C@@H]1CCN(C(=O)C2CCCC2)C[C@@H]1CCN1CCCCC1`, the cytotoxicity at 70.5 h is -1.16%.

On to `CNc1cc2c(nn1)CCN(C(=O)c1ccc3c(c1)OCO3)C2`, for which the cytotoxicity at 70.5 h was -8.95%.

For the compound `CCc1nccn1C1CCCN(C(=O)c2cncnc2C)C1` (centres undefined), the cytotoxicity at 70.5 h is 16%.

For `CCOC(C(=O)N1CCn2c(CC)nnc2C1)c1ccccc1` (centres undefined), the cytotoxicity at 70.5 h was -11.9%.

Consider `Cc1cc(C(=O)N2CCCC(c3nccn3Cc3cscn3)C2)on1` (centres undefined), for which the cytotoxicity at 70.5 h is -6.42%.

Consider `Cn1c(CS(=O)(=O)Cc2ccc(Cl)cc2)cc(=O)n(C)c1=O`, for which the cytotoxicity at 70.5 h is -6.35%.

As for `CN(C)C1CCN(C(=O)C2SCCc3ccccc32)CC1` (centres undefined), the cytotoxicity at 70.5 h is -6.27%.

On to `OC(COCc1ccco1)CN1CCC(Cn2cccn2)CC1` (centres undefined), for which the cytotoxicity at 70.5 h is -14.1%.

`CCOc1nn(CC)cc1-c1nnc(SCc2cccnc2)n1CC`: the cytotoxicity at 70.5 h is -7.15%.

For `CCC(CNC(=O)Cc1cc(C)on1)Oc1cccc(F)c1` (centres undefined), the cytotoxicity at 70.5 h is 0.445%.

The record behind these values is ChEMBL document CHEMBL3507680, “University of Dundee, Gates Library screen for HepG2 cell viability”.
